Experimental data taken from patent publication US20210078985A1, “COMPOUND, PREPARATION METHOD THEREFOR, AND USE THEREOF” (MEDSPRING INTERNATIONAL LIMITED, priority 2018, published 2021).
In brackets after ≈: the same amount, converted by molar mass. Where two headings read alike, the source gives them in different places.

Assays:
[1] = Experimental: Solubility of compounds was determined according to the method established in the general instructions of Part II of Pharmacopoeia 2010 edition. […] The dissolution was observed within 30 minutes.
(§1) The dissolution was then observed within 30 minutes.
as §1

[2] = test system: Caco-2 cells; test: In vitro membrane permeability test (Caco-2 monolayer)
Experimental: Caco-2 cell model is a human colonic adenocarcinoma cell line having a structure and function similar to differentiated intestinal epithelial cells. It has microvilli and other structures, and contains enzyme system related to intestinal brush border epithelium.
The cryopreserved Caco-2 cells were thawed in 37° C. water bath. After resuscitation, the cells were added into DMEM medium containing 10% FBS, and cultured in an incubator with 37° C., 5% CO2 and 90% relative humidity. The culture medium was changed every other day. After 1-2 days of growth, the cells were digested with 0.25% trypsin-EDTA (0.2%) mixed digestive solution at 37° C. and passaged in a certain proportion. The cell generation used in the experiments was 40-60 passages.
When cells reached 80% confluency, they were digested and suspended in complete medium and seeded on Millicell plate at 1×10^6 cells·ml^−1. After that, the culture medium was changed once every 2 days and after 1 week, was changed once every 1 day. After 5 days of culture, the resistance value reaches plateau (>200 Ω·cm^2), which can be then used for membrane permeability experiment.
The compound was diluted to 5 μmol·L^−1 by HBSS. Before experiments, the culture medium in each well was discarded, washed twice with HBSS solution at 37° C., and then incubated in a 37° C. incubator. […] The emission wavelength was set at 430 nm and the excitation wavelength was set at 530 nm.
Before experiments, Millicell inoculated with cells was soaked in HBSS solution at 37° C. for an appropriate time period, and the Millicell was washed slightly to remove the attachment on the cell surface. The permeability from cavity surface to basal surface: 0.35 ml HBSS solution containing drug was added to the top side (AP) and 1.2 ml blank HBSS solution was added to the bottom side (BL). The Millicell was incubated while shaking at 50 r·min^−1 at 37° C., a 50 μL sample was taken in the lower layer at 0, 30, 90 and 120 min, and a same volume of blank HBSS solution as added back. 3 holes were repeated for each concentration. 50 μL internal standard solution and 350 μL ethyl acetate were added to the sample, which was shaken and mixed, centrifuged at 12000 rpm for 5 min. 300 μL of supernatant was taken out, dried by evaporation, and re-dissolved in 50 μL acetonitrile. 10 μL sample was taken out for testing. For the permeability from the base surface to the cavity surface, the drug was added to the bottom side (BL), and the blank HBSS solution was added to the top side (AP). The following steps are the same as the permeability test operation from the cavity surface to the base surface.
The apparent permeability coefficient (Papp) of drugs reflects the ability of drugs to pass through monolayer cells and the speed and degree of drug absorption. It can be calculated by the following formula: […]
Herein, ΔQ is the amount of drug penetration during the time period of Δt, A is the cell surface area, which is the area of supporting membrane (0.6 cm^2) in this model, and Co is the initial concentration. The unit of Papp is usually expressed in cm/h (cm·h^−1) or cm/s (cm·s^−1).
LC/MS was used for testing. The standard curve ([…]-10000 nM) was used to quantify the concentration of each sample.

[3] = biological target: T1, CHO membranes expressing CCR4 (Homo sapiens, UniProt P51679); test: In vitro CCR4 antagonistic activity, competitive [35S]-GTPγS test; type: biochemical
T1 construct: expressed in transfected cells; host or cells: CHO cell membranes
T1 sequence (P51679 1-360): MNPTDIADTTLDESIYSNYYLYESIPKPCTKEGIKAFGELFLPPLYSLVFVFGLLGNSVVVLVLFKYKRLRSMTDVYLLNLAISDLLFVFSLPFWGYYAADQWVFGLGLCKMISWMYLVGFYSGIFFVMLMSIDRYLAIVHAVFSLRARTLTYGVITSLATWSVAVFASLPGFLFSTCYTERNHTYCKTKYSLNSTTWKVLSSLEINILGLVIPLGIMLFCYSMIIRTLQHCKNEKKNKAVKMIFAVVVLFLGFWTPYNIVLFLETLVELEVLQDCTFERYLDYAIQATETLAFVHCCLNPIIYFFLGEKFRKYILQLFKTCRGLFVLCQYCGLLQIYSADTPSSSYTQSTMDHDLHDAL
Experimental: The potency of antagonists was tested by a competitive test of [35S]-GTPγS. Briefly, CHO membranes expressing CCR4 were homogenized through a 23 G needle. These membranes were then attached to WGA-coated Leadseeker SPA beads in a testing buffer (20 mM HEPES, 10 mM MgCl2, 100 mM NaCl, 0.05% BSA, 40 ug/ml saponin, adjusted to pH 7.4 with KOH 5M) to produce 3 μg/well final […] (FAC) membrane and 250 μg/well FAC bead solution. After 60 minutes of pre-coupling on ice, GDP was added to obtain 4.4 uM FAC. Then [35S]-GTPS, which was prepared in the testing buffer, was added into the bead/membrane solution to thereby obtain 0.33 nM FAC. […] The suspension of beads/membranes/[35S]-GTPγS/agonist was distributed into a white Greiner polypropylene 384-pore plate (45 μL/well), which contained 0.5 μl of compound. The final testing solution (45.5 μL) was sealed, centrifuged and incubated at room temperature for 3-6 hours. Then, the plate was read with Viewlux and the luminescence was plotted as the percentage of the maximum inhibitory response induced by IC100 standard antagonist.

| SMILES | Solubility in water under 25° C. ± 2° C. [1] [mg/mL] | absorption classification from Papp ([2]; Caco-2) | Papp (apparent permeability coefficient) ([2]; human, Caco-2) | Solubility in water under 25° C. ± 2° C. ([1]; water, 25° C. ± 2° C., visual dissolution within 30 minutes) [mg/mL] | absorption classification from Papp ([2]; Caco-2, Papp>2×10^−6 = good-absorption drug) | Papp (apparent permeability coefficient) ([2]; Caco-2 monolayer, direction not given, sodium) | IC50, times higher than that of compound 6 ([3]; relative to compound 6, same experimental conditions) [times] | solubility, times higher than that of compound 6 [1] | permeability, times higher than compound 6 ([2]; Caco-2) | IC50, times higher than that of compound 6 [3] [times] |
| --- | --- | --- | --- | --- | --- | --- | --- | --- | --- | --- |
| COc1cccc2c1c(NS(=O)(=O)c1ccc(Cl)s1)nn2Cc1cccc(CNC(=O)C(C)(C)O)c1 [Compound 6, N-[(3-{[3-{[(5-chloro-2-thienyl)sulfonyl]amino}-4-(methoxy)-1H-indazole-1-yl]methyl}phenyl)methyl]-2-hydroxy-2-methylpropionamide, reference compound] | 0.02 (≈ 36.4 µM) | difficult-to-absorb compound | 0.13 ×10^−6 |  |  |  |  |  |  |  |
| COc1cccc2c1c(NS(=O)(=O)c1ccc(Cl)s1)nn2Cc1cccc(CNC(=O)C(C)(C)O)c1.[Na] [Compound of formula II, N-[(3-{[3-{[(5-chloro-2-thienyl)sulfonyl]amino}-4-(methoxy)-1H-indazole-1-yl]methyl}phenyl)methyl]-2-hydroxy-2-methylpropionamide sodium] |  |  |  | 500 | easy-to-absorb compounds | 68.82 ×10^−6 | 6 |  |  |  |
| COc1cccc2c1c(NS(=O)(=O)c1ccc(Cl)s1)nn2Cc1cccc(CNC(=O)C(C)(C)O)c1 [Compound of formula III, N-[(3-{[3-{[(5-chloro-2-thienyl)sulfonyl]amino}-4-(methoxy)-1H-indazole-1-yl]methyl}phenyl)methyl]-2-hydroxy-2-methylpropionamide potassium] | 40 | easy-to-absorb compounds |  |  |  |  |  | 2000-25000 times | 530-780 times | 210 |
